# System: Methylorubrum extorquens AM1
# Test: Tolerance of the strain to the inhibitory effect of itaconic acid
# Assay type: cell-based
# Conditions: itaconic acid 10 mM
smiles,measurement,value
C=C(CC(=O)O)C(=O)O [itaconic acid],Tolerance to inhibitory effect of itaconic acid,highly tolerant

# — patent US11208671B2, “Recombinant cell and method of producing itaconic acid” (City University of Hong Kong, priority 2019, dated 2021)
